The series in a line: in vitro. The conditions noted are these: human, hela cells, % viability.

Structures are written as SMILES.

Usually viability stands for a read-out of living cells in per cent, often relative to untreated cells. `COc1cccc(-c2cnc3[nH]c(=O)n(Cc4ccc(Cl)cc4)c3n2)c1` [CBK064596]: the viability at 28.5 h, 10 µM was determined as 111%.
For `COCCCn1c(=O)[nH]c2ncc(-c3cnc(OC)nc3)nc21` [CBK064618], the viability at 28.5 h, 10 µM was found to be 92%.
As for `COc1cc(-c2cnc3[nH]c(=O)n(CCc4ccncc4)c3n2)cc(OC)c1OC` [CBK064620], the figure is 96.9%.
As to `COc1ccccc1-c1cnc2[nH]c(=O)n(Cc3ccc(F)c(Cl)c3)c2n1` [CBK064662], the viability at 28.5 h, 10 µM came to 103%.
As for `CN(C)c1cccc(-c2cnc3[nH]c(=O)n(-c4ccc5[nH]ccc5c4)c3n2)c1` [CBK064682], the figure is 103%; as for `COc1ccccc1-c1cnc2[nH]c(=O)n(CC(C)(C)CO)c2n1` [CBK064690], 90.2%; as for `COc1ccccc1-c1cnc2[nH]c(=O)n([C@@H](C)c3ccccc3)c2n1` [CBK064717], 93.3%.
In the case of `CC(C)(CO)Cn1c(=O)[nH]c2ncc(-c3ccco3)nc21` [CBK064721], the viability at 28.5 h, 10 µM came to 98.8%.
On to `COc1cc(-c2cnc3[nH]c(=O)n(Cc4ccco4)c3n2)cc(OC)c1OC` [CBK064755], for which the viability at 28.5 h, 10 µM amounted to 96.3%.
Consider `COc1ccc(-c2cnc3[nH]c(=O)n(CCN4CCOCC4)c3n2)cc1` [CBK064782], for which the viability at 28.5 h, 10 µM turned out to be 103%.
Take `CN1CCN(C(=O)c2ccc(-c3cnc4[nH]c(=O)n(CCN5CCOCC5)c4n3)cc2)CC1` [CBK064800]: the viability at 28.5 h, 10 µM came to 114%.
Turning to `O=c1[nH]c2ncc(-c3cncc4ccccc34)nc2n1CCCO` [CBK064814], the viability at 28.5 h, 10 µM was 96%.
For `O=C(NC1CCCC1)c1ccc(-c2cnc3[nH]c(=O)n(CCCN4CCOCC4)c3n2)cc1` [CBK064829], the viability at 28.5 h, 10 µM came out at 102%.
The same measure for `CC(C)[C@@H](CO)n1c(=O)[nH]c2ncc(-c3cccc4cccnc34)nc21` [CBK064848]: 102%; for `CC(=O)Nc1cccc(-c2cnc3[nH]c(=O)n(C4CC4)c3n2)c1` [CBK064859]: 103%.
For the molecule `COc1ccc(-c2cnc3[nH]c(=O)n(C4CC4)c3n2)cc1` [CBK064907], the viability at 28.5 h, 10 µM was found to be 86.9%.
With `COc1ncc(-c2cnc3[nH]c(=O)n(C4CC4)c3n2)cn1` [CBK064908], the viability at 28.5 h, 10 µM was determined as 89.1%.
Regarding `COCCCn1c(=O)[nH]c2ncc(-c3cc(OC)c(OC)c(OC)c3)nc21` [CBK064937], the viability at 28.5 h, 10 µM came out at 91.8%.
As for `CC(C)[C@H](CO)n1c(=O)[nH]c2ncc(-c3cccc4ncccc34)nc21` [CBK064955], the viability at 28.5 h, 10 µM came to 99.5%.
Regarding `CCCC/C=C/c1cnc2[nH]c(=O)n(Cc3ccc(S(N)(=O)=O)cc3)c2n1` [CBK064956], the viability at 28.5 h, 10 µM came to 98.8%.
On to `CC(C)[C@@H](CO)n1c(=O)[nH]c2ncc(-c3cccc4ccccc34)nc21` [CBK064961], for which the viability at 28.5 h, 10 µM was determined as 98.6%.
Turning to `CN(C)c1ccc(-c2cnc3[nH]c(=O)n(C4CCCC4)c3n2)cc1` [CBK064964], the viability at 28.5 h, 10 µM stood at 98%.
As for `O=c1[nH]c2ncc(-c3cncc4ccccc34)nc2n1C1CCC(O)CC1` (stereo not shown) [CBK065013], the figure is 108%; as for `CC(C)[C@@H](CO)n1c(=O)[nH]c2ncc(-c3ccco3)nc21` [CBK065018], 106%.
Take `CC(C)[C@H](CO)n1c(=O)[nH]c2ncc(-c3ccc(OC(F)(F)F)cc3)nc21` [CBK065037]: the viability at 28.5 h, 10 µM turned out to be 105%.
For `C[C@@H](c1ccccc1)n1c(=O)[nH]c2ncc(-c3cccc(/C=C/C(=O)O)c3)nc21` [CBK065040], the viability at 28.5 h, 10 µM stood at 106%.
For the molecule `CC(C)[C@@H](CO)n1c(=O)[nH]c2ncc(-c3cccc(/C=C/C(=O)O)c3)nc21` [CBK065043], the viability at 28.5 h, 10 µM turned out to be 88.6%.
The same measure for `O=c1[nH]c2ncc(-c3ccsc3)nc2n1CCCO` [CBK065044]: 94.9%.
For the molecule `CN(C)c1cccc(-c2cnc3[nH]c(=O)n(CCCO)c3n2)c1` [CBK065052], the viability at 28.5 h, 10 µM was determined as 102%.
In the case of `COc1ncc(-c2cnc3[nH]c(=O)n(Cc4ccc(S(C)(=O)=O)cc4)c3n2)cn1` [CBK065053], the viability at 28.5 h, 10 µM was determined as 103%.
In the case of `CS(=O)(=O)c1ccc(Cn2c(=O)[nH]c3ncc(-c4cccc(/C=C/C(=O)O)c4)nc32)cc1` [CBK065059], the viability at 28.5 h, 10 µM was found to be 97.7%.
For `O=c1[nH]c2ncc(-c3cccc4ncccc34)nc2n1CCCO` [CBK065060], the viability at 28.5 h, 10 µM came to 104%.
Turning to `O=c1[nH]c2ncc(-c3cccnc3)nc2n1CCN1CCOCC1` [CBK065070], the viability at 28.5 h, 10 µM came out at 103%.
For the molecule `O=c1[nH]c2ncc(-c3cccc(CO)c3)nc2n1CC1CC1` [CBK065088], the viability at 28.5 h, 10 µM was 63.9%.
Turning to `NC(=O)c1ccc(-c2cnc3[nH]c(=O)n(CCCN4CCOCC4)c3n2)cc1` [CBK065092], the viability at 28.5 h, 10 µM worked out at 102%.
Take `COCCCn1c(=O)[nH]c2ncc(-c3cccc(CO)c3)nc21` [CBK065104]: the viability at 28.5 h, 10 µM worked out at 99.4%.
As to `COCCCn1c(=O)[nH]c2ncc(-c3cccc(/C=C/C(=O)O)c3)nc21` [CBK065107], the viability at 28.5 h, 10 µM came to 104%.
`COc1cc(-c2cncc(Nc3ccc4c(c3)OC(F)(F)C(F)(F)O4)n2)cc(OC)c1OC` [CBK065138]: the viability at 28.5 h, 10 µM came out at 94.4%.
Regarding `CN1CCN(c2ccc(-c3cncc(N4CCN(c5ccncc5)CC4)n3)cn2)CC1` [CBK065144], the viability at 28.5 h, 10 µM turned out to be 92.9%.
As to `COc1ncc(-c2cncc(N3CCN(CCO)CC3)n2)c(OC)n1` [CBK065146], the viability at 28.5 h, 10 µM amounted to 84.8%.
The same measure for `CCCC/C=C/c1cncc(Nc2cc(OC)c(OC)c(OC)c2)n1` [CBK065155]: 102%.
Regarding `O=C(c1ccco1)N1CCN(c2cncc(-c3ccc4ccccc4c3)n2)CC1` [CBK065184], the viability at 28.5 h, 10 µM was determined as 89%.
The same measure for `COc1cc(Nc2cncc(-c3cccnc3)n2)cc(OC)c1OC` [CBK065201]: 93.7%; for `OCc1ccccc1-c1cncc(N2CCN(c3ccncc3)CC2)n1` [CBK065208]: 113%.
In the case of `CC(=O)Nc1cccc(-c2cncc(NCc3cccc(Cl)c3)n2)c1` [CBK065236], the viability at 28.5 h, 10 µM worked out at 97.2%.
As for `c1csc(CNc2cncc(-c3ccncc3)n2)c1` [CBK065238], the viability at 28.5 h, 10 µM is 97.3%.
For `CC(C)(CO)CNc1cncc(-c2cccc(C(F)(F)F)c2)n1` [CBK065248], the viability at 28.5 h, 10 µM worked out at 102%.
For `COc1cc(-c2cncc(NCc3ccncc3)n2)cc(OC)c1OC` [CBK065263], the viability at 28.5 h, 10 µM came out at 98.9%.
Take `COc1ncc(-c2cncc(N[C@H](C)c3ccccc3)n2)c(OC)n1` [CBK065267]: the viability at 28.5 h, 10 µM turned out to be 92.4%.
With `CN(C)CCN(C)c1cncc(-c2cccc(N)c2)n1` [CBK065270], the viability at 28.5 h, 10 µM turned out to be 87.3%.
As for `C[C@@H](Nc1cncc(-c2cccc(N)c2)n1)c1ccccc1` [CBK065273], the figure is 87.1%; as for `COc1cc(-c2cncc(NCc3cccc(Cl)c3)n2)cc(OC)c1OC` [CBK065284], 115%; as for `COc1ncc(-c2cncc(NCCc3ccccn3)n2)c(OC)n1` [CBK065287], 97.7%.
`Fc1cccc(-c2cncc(NCCc3c[nH]c4ccccc34)n2)c1` [CBK065288]: the viability at 28.5 h, 10 µM was 94.7%.
With `CC(=O)Nc1cccc(-c2cncc(NCc3ccco3)n2)c1` [CBK065290], the viability at 28.5 h, 10 µM came to 100%.

The record behind these values is article PMC12040169 (PLOS Biology, 2025).
